In patent US7732611B2, “Amine salt of carbostyril derivative” (Otsuka Pharmaceutical Co., Ltd., priority 2004, dated 2010):

Assays:
[1] = Water-solubility test at 25° C. of the isolated salts (HPLC); type: physicochemical; settings: shaken 3 hours (5 days for meglumine salt), filtered, concentration of Compound A by HPLC
Experimental: Preparation of the Test Solution
After shaking, the mixture was filtered through a 0.45 μm membrane filter (0.2 μm for meglumine salt). 1 mL of the filtrate was precisely pipetted and thereto was added 50% DMF so as to be totally 50 mL in precise. 2 mL of this solution was precisely pipetted and thereto was added 50% DMF so as to be totally 20 mL in precise to give a sample solution.
Preparation of the Standard Solution
Using each 10 μL of the sample solutions and the standard solutions, the liquid chromatographic analyses were carried out in the following conditions.

[2] = Solubility test at 25° C. of the salt in a preparation prepared when used without isolating the salt (HPLC); type: physicochemical; settings: water, Compound A plus equimolar amine, salt not isolated, shaken 7 days, 0.2 μm filter
Experimental: And then as to a sample to which arginine was added, the suspension was filtered through a 0.2 μm membrane filter. […] And then the mixture was filtrated through a 0.2 μm membrane filter. According to the same method as Example 8, the solubilities (%) of each salt was measured by HPLC.

SMILES: CC(O)CNCC(C)O.O=C(NC(Cc1cc(=O)[nH]c2ccccc12)C(=O)O)c1ccc(Cl)cc1 (centres unmarked) [Compound A·diisopropanolamine salt, 2-(4-chlorobenzoylamino)-3-(2-quinolon-4-yl)propionic acid.diisopropanolamine salt]
- Solubility (%) [1]: 2.9%
- Solubility (%) [2]: >7.4%
